Reference: ChEMBL document CHEMBL1933061, “Discovery of a novel class of aldol-derived 1,2,3-triazoles: potent and selective inhibitors of human cytochrome P450 19A1 (aromatase)” (Bioorg Med Chem Lett, 2012)

Legend:
[1] = target: T1, Aromatase (Homo sapiens, UniProt P11511); assay: Inhibition of human recombinant aromatase assessed as conversion of O-dibenzylfluorescein benzyl ester substrate to fluorescein byproduct at 10 uM by fluorometric assay
T1 sequence (P11511 whole entry): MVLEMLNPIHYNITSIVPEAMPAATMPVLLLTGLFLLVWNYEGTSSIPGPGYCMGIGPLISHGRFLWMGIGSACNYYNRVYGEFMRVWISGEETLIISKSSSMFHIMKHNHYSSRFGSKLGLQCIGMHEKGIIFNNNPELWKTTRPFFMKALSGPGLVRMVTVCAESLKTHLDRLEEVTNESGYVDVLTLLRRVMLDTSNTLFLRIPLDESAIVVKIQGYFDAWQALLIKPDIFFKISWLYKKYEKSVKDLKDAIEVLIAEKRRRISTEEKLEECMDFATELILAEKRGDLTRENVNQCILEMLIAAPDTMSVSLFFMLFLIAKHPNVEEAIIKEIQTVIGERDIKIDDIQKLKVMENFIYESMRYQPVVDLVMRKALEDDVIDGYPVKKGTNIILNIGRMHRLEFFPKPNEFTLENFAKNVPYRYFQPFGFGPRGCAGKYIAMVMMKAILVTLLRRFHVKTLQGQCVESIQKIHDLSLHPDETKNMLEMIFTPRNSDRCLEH

[2] = target: T1, Aromatase; assay: Inhibition of human recombinant aromatase assessed as conversion of O-dibenzylfluorescein benzyl ester substrate to fluorescein byproduct by fluorometric assay; details: for inhibition (INH): human
[3] = target: Cytochrome P450 3A4 (Homo sapiens, UniProt P08684); assay: Inhibition of CYP3A4 at 10 uM; type: ADME
Cytochrome P450 3A4, sequence (P08684 whole entry): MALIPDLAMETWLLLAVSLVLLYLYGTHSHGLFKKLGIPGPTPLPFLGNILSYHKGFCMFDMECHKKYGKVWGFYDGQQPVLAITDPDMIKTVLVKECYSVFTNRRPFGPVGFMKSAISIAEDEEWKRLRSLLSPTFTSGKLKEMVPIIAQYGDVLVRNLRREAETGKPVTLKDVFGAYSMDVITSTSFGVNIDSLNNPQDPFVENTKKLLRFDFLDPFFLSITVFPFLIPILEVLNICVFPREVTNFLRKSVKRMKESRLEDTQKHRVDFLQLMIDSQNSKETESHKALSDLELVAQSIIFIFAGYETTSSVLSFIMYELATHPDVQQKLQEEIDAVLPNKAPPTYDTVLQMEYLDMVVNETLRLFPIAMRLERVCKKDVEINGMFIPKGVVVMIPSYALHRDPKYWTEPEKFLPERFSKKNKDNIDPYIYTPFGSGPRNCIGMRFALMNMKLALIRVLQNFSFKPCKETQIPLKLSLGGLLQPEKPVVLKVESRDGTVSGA

[4] = target: T2, Cytochrome P450 1A1 (Homo sapiens, UniProt P04798); assay: Inhibition of CYP1A1; type: ADME
T2 sequence (P04798 whole entry): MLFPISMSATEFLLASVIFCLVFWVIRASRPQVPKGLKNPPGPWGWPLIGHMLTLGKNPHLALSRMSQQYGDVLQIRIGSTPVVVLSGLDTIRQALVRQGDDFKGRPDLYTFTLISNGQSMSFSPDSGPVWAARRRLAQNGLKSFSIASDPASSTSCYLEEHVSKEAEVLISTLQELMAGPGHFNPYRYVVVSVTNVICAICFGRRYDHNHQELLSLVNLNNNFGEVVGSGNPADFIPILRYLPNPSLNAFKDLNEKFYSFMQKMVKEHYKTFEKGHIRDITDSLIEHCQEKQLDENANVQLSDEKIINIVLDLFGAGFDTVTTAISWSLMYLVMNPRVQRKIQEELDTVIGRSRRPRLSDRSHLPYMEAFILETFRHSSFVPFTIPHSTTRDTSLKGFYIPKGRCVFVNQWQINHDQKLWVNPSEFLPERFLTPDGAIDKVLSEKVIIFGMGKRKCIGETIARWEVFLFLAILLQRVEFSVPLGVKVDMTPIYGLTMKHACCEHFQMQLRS

[5] = target: Cytochrome P450 2D6 (Homo sapiens, UniProt P10635); assay: Inhibition of CYP2D6; type: ADME
Cytochrome P450 2D6, sequence (P10635 whole entry): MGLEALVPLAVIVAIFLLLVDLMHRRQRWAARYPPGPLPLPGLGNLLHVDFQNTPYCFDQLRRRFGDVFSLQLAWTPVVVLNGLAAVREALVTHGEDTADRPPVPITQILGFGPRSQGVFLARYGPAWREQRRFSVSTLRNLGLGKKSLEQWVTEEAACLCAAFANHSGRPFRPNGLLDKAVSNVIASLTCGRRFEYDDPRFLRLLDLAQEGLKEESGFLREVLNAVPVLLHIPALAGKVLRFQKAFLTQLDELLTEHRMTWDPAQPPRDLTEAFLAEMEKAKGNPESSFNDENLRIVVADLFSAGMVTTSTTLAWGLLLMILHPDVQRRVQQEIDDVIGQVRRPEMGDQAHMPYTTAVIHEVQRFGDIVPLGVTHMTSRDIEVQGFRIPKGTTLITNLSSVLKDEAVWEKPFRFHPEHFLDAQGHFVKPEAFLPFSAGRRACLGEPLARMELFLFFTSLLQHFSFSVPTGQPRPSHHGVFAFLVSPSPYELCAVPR

Row | SMILES | inhibition (INH) [1] | inhibition (INH) [3] | Ki [2] [µM] | also measured
1 | COCO[C@H](c1ccccc1)[C@@H](CN=[N+]=[N-])c1ccccc1 (relative stereo) | Not Active |  |  | 
2 | COCO[C@@H](c1ccccc1)[C@@H](Cn1cc([Si](C)(C)C)nn1)c1ccccc1 (relative stereo) | Not Active |  |  | inhibition (INH) [2]: Not Active
3 | COCO[C@@H](c1ccccc1)[C@@H](CN1CCOCC1)c1ccccc1 (relative stereo) | Not Active |  |  | 
4 | O=C(c1ccccc1)C(Cn1ccnn1)c1ccccc1 (stereo unspecified) |  | Not Active | 1 | Ki [4]: 5.37 µM
5 | O=C(O[C@@H](c1ccccc1)[C@@H](Cn1ccnn1)c1ccccc1)c1ccccc1 (relative stereo) |  | Not Active | 0.1 | Ki [4]: 30.9 µM
6 | COCO[C@@H](c1ccccc1)[C@@H](CN=[N+]=[N-])c1ccccc1 (relative stereo) | Not Active |  |  | inhibition (INH) [2]: Not Active

Continued, in another order:

Row | inhibition (INH) [1] | inhibition (INH) [3] | Ki [2] [µM] | SMILES | also measured
7 |  | Not Active | 0.08 | COCO[C@H](c1ccccc1)[C@@H](Cn1ccnn1)c1ccccc1 (relative stereo) | 
8 | Not Active |  |  | COCO[C@@H](c1ccccc1)[C@@H](CN)c1ccccc1 (relative stereo) | 
9 |  | Not Active | 0.06 | CC(=O)O[C@@H](c1ccccc1)[C@@H](Cn1ccnn1)c1ccccc1 (relative stereo) | 
10 | Not Active |  |  | COCO[C@H](c1ccccc1)[C@@H](Cn1cc([Si](C)(C)C)nn1)c1ccccc1 (relative stereo) | 
11 |  |  | 0.79 | COCO[C@@H](c1ccccc1)[C@@H](Cn1ccnn1)c1ccccc1 (relative stereo) | Ki [5]: 1120 µM
12 | Not Active |  |  | O[C@@H](c1ccccc1)[C@@H](Cn1ccnn1)c1ccccc1 (relative stereo) | 
13 |  | Not Active | 0.05 | O[C@H](c1ccccc1)[C@@H](Cn1ccnn1)c1ccccc1 (relative stereo) | Ki [5]: 708 µM
14 |  | Not Active | 0.25 | CC(=O)O[C@H](c1ccccc1)[C@@H](Cn1ccnn1)c1ccccc1 (relative stereo) | 
